# Source: patent US20220153766A1, “CONDENSED TRICYCLIC COMPOUND USED AS KINASE INHIBITOR” (Hangzhou Innogate Pharma Co., Ltd., priority 2019, published 2022)
# Assays:
# [1] = target: ALK (Homo sapiens, UniProt Q9UM73); test: ALK kinase activity inhibition, Caliper mobility shift assay, method 2; format: biochemical; settings: ALK 1.25 nM, ATP 30 μM
# Method: 2. ALK Kinase Activity Inhibition Experiment:
# Method 2: Caliper mobility shift assay was used to measure ALK protein kinase activity. The method is basically the same as method 1, with individual parameters adjusted. The initial concentration of the compound is 1 mM, and sequentially diluted 4-fold to make 6 points (7 points for some individual compounds). Use a dispenser Echo 550 to transfer 250 nL of 100-fold final concentration of the compound to the target plate 3573, add 10 μL ALK with final concentration of 1.25 nM, incubate at room temperature for 10 minutes (the negative control well contains 10 μL kinase buffer and 250 nL 100% DMSO; the positive control well contains 10 μL kinase solution and 250 nL 100% DMSO). On the kinase ALK, add 15 μL of ATP with a final concentration of 30 μM and 3 μM of the substrate peptide No. 22 mixed solution to react for 25 minutes; add 30 μL of stop detection solution containing EDTA to stop the kinase reaction. Use Caliper EZ Reader to read the conversion rate. Inhibition rate %=(Average positive control conversion rate %−Sample conversion rate %/(Average positive control conversion rate %−Average negative control conversion rate %). Among them: negative control wells represent the conversion rate readings without enzyme activity; positive control wells represent the conversion rate readings of wells without compound inhibition. Take the log value of the concentration as the X-axis, and the percentage inhibition rate on the Y-axis. Log (inhibitor) vs. response—Variable slope of analysis software GraphPad Prism 5 was used to fit the curve to obtain the IC50 value of each compound on the enzyme activity. Calculation formula: Y=Bottom+(Top−Bottom)/(1+10^((Log IC50−X)*HillSlope)).
# [2] = target: MAP4K1 (HPK1) (Homo sapiens, UniProt Q92918); test: MAP4K1 (HPK1) kinase activity inhibition, Caliper mobility shift assay; format: biochemical; settings: kinase 1.25 nM, ATP 10.1 μM
# Summary of the method: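 HPK1 kinase at 1.25 nM final preincubated 10 min at room temperature with compound (5 points, 5-fold dilutions from 500 nM), then reacted 120 min with 10.1 μM ATP and 3 μM substrate peptide No. 25. EDTA stop; mobility-shift conversion read, IC50 from variable-slope four-parameter fit of % inhibition.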
# [3] = target: T1, Ba/F3_EGFR del19/T790M/C797S cells (Homo sapiens, UniProt P00533, T790M/C797S, cells depend on it, form not given); test: Ba/F3_EGFR (del19-T790M-C797S) cell proliferation inhibition, CTG, method 1; format: cell-based; settings: 700 cells/well, 72 h, read-out: Ba/F3_EGFR (del19-T790M-C797S) cell proliferation inhibition (IC50 value) Method 1
# [4] = target: T1, Ba/F3_EGFR del19/T790M/C797S cells; test: Ba/F3_EGFR (del19-T790M-C797S) cell proliferation inhibition, CTG, method 2; format: cell-based; settings: 2000 cells/well, 72 h, read-out: Ba/F3_EGFR (del19-T790M-C797S) cell proliferation inhibition (IC50 value) Method 2
# Method: Take a small amount of cells and count them with ViCell. 2) Adjust the cell density, inoculate the cells in a 384-well plate at 2000/well, and incubate in a 37° C., 5% CO2 incubator for 4 hours. 3) Set up the program of Tecan HP D300, add the compound to the well plate. The maximum initial concentration of the compound is 1-4 μM, 3 folds dilution, 9 concentrations, and the DMSO content in each well is unified to 0.2%.
# CTG method detection: 1) Take out the CTG reagent and cell plate and equilibrate at room temperature for 30 min, add 25 μL CTG to each well, shake at medium speed for 2 min, centrifuge at 1000 rpm for 1 minutes, and stand still at room temperature for 10 minutes. 2) Envision instrument reads the chemiluminescence signal value.
# Data analysis: IC50 results are analyzed by IDBS's XL-fit 5.0 software.
# T1 sequence (P00533 with tags, fused parts or gaps DEL746-750/T790M/C797S, form open): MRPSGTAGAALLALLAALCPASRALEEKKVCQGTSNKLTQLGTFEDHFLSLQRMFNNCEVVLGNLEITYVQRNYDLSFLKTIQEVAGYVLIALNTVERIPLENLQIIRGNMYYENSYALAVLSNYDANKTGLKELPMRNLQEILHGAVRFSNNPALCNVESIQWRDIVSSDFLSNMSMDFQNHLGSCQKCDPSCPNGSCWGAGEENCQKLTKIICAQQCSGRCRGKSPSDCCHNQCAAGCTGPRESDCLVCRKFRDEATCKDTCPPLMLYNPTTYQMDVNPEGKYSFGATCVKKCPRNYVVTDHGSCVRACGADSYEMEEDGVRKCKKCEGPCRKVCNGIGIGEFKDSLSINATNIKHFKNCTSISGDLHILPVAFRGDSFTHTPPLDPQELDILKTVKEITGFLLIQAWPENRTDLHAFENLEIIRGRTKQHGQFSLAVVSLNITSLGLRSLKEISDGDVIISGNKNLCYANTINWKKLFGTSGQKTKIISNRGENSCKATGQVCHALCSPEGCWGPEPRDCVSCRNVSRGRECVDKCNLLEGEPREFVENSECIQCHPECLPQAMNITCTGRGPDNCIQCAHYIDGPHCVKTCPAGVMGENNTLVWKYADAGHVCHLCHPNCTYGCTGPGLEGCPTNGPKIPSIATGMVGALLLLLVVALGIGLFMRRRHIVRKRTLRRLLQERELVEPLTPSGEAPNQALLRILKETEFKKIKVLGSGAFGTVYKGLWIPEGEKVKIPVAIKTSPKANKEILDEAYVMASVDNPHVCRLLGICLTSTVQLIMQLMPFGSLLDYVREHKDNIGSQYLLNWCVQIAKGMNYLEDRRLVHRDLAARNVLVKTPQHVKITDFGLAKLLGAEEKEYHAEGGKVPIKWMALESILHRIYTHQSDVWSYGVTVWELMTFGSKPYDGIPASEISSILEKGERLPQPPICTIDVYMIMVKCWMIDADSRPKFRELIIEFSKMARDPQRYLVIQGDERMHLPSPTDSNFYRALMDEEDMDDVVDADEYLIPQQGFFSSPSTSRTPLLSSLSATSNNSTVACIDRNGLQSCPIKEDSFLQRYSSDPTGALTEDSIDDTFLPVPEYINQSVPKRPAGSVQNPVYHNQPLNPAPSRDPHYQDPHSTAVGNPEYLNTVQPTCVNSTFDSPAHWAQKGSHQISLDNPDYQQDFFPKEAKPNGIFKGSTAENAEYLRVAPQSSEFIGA
# Sequence of ALK (Q9UM73 19-1620): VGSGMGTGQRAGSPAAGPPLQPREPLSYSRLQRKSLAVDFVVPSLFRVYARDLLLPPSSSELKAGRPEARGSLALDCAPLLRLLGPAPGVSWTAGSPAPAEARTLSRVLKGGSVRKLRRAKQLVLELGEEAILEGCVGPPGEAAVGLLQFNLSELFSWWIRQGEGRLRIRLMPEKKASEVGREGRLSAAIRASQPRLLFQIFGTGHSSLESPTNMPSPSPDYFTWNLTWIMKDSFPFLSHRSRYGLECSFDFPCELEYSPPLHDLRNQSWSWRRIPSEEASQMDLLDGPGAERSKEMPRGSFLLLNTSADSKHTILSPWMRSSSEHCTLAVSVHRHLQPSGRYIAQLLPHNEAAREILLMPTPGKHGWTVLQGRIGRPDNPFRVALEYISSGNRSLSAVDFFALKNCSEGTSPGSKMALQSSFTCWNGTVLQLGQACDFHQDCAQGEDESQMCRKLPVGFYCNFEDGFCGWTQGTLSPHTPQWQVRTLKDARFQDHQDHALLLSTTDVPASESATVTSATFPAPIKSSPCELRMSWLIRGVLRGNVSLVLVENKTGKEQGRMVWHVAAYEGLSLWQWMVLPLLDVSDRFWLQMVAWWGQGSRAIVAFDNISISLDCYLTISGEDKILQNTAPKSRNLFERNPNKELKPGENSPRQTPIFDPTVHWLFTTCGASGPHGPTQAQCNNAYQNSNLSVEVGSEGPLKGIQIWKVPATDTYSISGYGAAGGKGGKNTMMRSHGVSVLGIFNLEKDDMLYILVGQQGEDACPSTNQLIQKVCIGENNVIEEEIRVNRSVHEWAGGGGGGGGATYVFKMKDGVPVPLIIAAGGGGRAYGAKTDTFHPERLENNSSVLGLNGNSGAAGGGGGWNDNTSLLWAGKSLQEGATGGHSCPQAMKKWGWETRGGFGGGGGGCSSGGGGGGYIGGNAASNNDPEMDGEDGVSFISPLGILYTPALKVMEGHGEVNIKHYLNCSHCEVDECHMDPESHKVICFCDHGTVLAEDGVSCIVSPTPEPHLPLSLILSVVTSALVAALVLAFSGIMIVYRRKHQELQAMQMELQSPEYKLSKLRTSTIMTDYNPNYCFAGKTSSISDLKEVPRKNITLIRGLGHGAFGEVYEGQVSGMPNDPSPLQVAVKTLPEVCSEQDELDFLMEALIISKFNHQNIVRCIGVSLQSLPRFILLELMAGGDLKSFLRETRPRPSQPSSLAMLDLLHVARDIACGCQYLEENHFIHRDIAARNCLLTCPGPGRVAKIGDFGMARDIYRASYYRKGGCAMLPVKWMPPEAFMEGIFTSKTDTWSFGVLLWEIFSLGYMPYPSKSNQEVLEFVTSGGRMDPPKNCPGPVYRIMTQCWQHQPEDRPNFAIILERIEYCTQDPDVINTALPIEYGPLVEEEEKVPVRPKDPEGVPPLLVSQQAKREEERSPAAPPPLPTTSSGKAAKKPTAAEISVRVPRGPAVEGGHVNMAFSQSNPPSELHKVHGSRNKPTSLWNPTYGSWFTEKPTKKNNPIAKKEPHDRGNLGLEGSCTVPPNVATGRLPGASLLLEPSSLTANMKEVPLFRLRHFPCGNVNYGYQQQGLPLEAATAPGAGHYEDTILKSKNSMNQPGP
# Sequence of MAP4K1 (HPK1) (Q92918 whole entry): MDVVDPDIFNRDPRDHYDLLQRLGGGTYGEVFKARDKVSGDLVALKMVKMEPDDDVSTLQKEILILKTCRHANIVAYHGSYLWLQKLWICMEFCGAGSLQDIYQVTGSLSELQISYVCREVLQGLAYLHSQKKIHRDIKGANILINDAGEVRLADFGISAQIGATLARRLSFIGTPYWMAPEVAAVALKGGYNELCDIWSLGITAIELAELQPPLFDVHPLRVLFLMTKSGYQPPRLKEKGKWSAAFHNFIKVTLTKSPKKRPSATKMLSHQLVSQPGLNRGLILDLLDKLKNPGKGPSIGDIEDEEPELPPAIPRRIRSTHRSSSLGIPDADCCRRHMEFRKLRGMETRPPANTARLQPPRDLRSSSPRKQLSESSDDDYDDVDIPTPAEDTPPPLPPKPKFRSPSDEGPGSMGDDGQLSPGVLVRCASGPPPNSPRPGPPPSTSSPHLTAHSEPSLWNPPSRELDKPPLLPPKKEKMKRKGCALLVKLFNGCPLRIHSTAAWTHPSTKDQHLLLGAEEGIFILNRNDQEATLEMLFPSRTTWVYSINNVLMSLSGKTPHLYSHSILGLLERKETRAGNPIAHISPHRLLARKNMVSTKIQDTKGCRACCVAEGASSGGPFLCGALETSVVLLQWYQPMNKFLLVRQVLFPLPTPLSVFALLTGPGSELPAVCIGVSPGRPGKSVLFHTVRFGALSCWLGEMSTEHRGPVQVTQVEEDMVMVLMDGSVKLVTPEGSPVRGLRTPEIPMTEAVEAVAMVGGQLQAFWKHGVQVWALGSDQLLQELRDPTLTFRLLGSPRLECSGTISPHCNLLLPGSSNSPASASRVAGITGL
compound,measurement,setting,value
Cc1cc(Nc2ncc(Cl)c(Nc3ccccc3P(C)(C)=O)n2)cc2c1N1CCN(C3CCN(C)CC3)C[C@@H]1CO2 [Compound 27R],IC50,[1],1 to 50 nM
same,IC50,[2],≤ 1 nM
same,GI50,[3],< 20 nM
same,GI50,[4],< 20 nM
